# Source: PMC9962305, “A Highly Expressed Antennae Odorant-Binding Protein Involved in Recognition of Herbivore-Induced Plant Volatiles in Dastarcus helophoroides” (International Journal of Molecular Sciences, 2023)
# “Also recorded” adds a separate entry of the source. Where two headings read alike, the source gives them in different places.
# Key:
# recombinant DhelOBP18 = recombinant DhelOBP18 (Dastarcus helophoroides, UniProt A0A1I9HZQ8); experiment: Fluorescence competitive binding assay (1-NPN probe); settings: DhelOBP18, pH 7.4; for IC50: read-out: IC50, ligand concentration displacing 50% of the fluorescence intensity of the DhelOBPs/1-NPN complex
# recombinant DhelOBP18, sequence (A0A1I9HZQ8 entry or part of it): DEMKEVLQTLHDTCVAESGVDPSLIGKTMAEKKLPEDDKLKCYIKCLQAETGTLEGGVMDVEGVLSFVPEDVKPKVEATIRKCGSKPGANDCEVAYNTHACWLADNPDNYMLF
# Protocol: (§1) Purified proteins were dissolved in 30 mM Tris-HCl buffer (pH 7.4 and 5.0), and emission fluorescence spectra were recorded on an RF-5301PC fluorescence spectrophotometer (Shimadzu, Kyoto, Japan) at room temperature in a right-angle configuration with a 1-cm light path quartz cuvette. To measure the affinity of the fluorescent probe 1-NPN with the target proteins, a […] solution of protein in 30 mM Tris-HCL (pH 7.4 and 5.0) was titrated with aliquots of 1 mM 1-NPN to final concentrations ranging from 0 to the approaching saturation. The probe 1-NPN was excited at 337 nm, and the emission spectra were recorded between 350 and 500 nm. The binding affinities of other ligands were measured using 1-NPN (2 μM) as the fluorescent probe with a stoichiometry of 1:1 (protein: probe), with the final concentration of each ligand ranging from 0 to 20 μM. All ligands, including 1-NPN were purchased from Sigma-Aldrich (St Louis, MO, USA) and TCI Shanghai (Shanghai, China) and dissolved in chromatogram class methanol (Aladdin, Shanghai, China).
# (§2) The dissociation constants (Kd) of DhelOBPs with 1-NPN were calculated from Scatchard plots of the binding data using PRISM 8.0 software (GraphPad, La Jolla, CA, USA). Binding affinities (Ki) of DhelOBPs for each ligand were calculated based on the IC50 value (the initial fluorescence level of the competitor concentration reduced by half) using the equation: Ki=IC50/(1+1-NPN/K1-NPN) , where [1-NPN] is the free concentration of 1-NPN, and K1-NPN is the dissociation constant of the complex OBP/1-NPN. The analysis supposes that there is only one protein binding site, which is 100% active, and that the binding is reversible and at an equilibrium.
# recombinant DhelOBP14 = recombinant DhelOBP14 (Dastarcus helophoroides, UniProt A0A1I9HZQ7); experiment: as above; settings: DhelOBP14, pH 7.4; for IC50: read-out: IC50, ligand concentration displacing 50% of the fluorescence intensity of the DhelOBPs/1-NPN complex
# recombinant DhelOBP14, sequence (A0A1I9HZQ7 entry or part of it): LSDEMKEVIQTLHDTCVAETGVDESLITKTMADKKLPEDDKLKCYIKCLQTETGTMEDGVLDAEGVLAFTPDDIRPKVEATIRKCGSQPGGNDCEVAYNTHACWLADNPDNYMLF
# Protocol: as §1, §2
# recombinant DhelOBP20 = recombinant DhelOBP20 (Dastarcus helophoroides, UniProt A0A1I9HZP8); experiment: as above; settings: DhelOBP20, pH 7.4; for IC50: read-out: IC50, ligand concentration displacing 50% of the fluorescence intensity of the DhelOBPs/1-NPN complex
# recombinant DhelOBP20, sequence (A0A1I9HZP8 entry or part of it): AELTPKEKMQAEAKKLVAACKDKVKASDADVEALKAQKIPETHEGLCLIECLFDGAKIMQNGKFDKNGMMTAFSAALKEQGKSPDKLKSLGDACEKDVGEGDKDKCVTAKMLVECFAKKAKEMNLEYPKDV
# Protocol: as §1, §2
# recombinant DhelOBP6 = recombinant DhelOBP6 (Dastarcus helophoroides, UniProt A0A1I9HZP3); experiment: as above; settings: DhelOBP6, pH 7.4; Scatchard plot; read-out: dissociation constant (Kd) bound to 1-NPN
# recombinant DhelOBP6, sequence (A0A1I9HZP3 entry or part of it): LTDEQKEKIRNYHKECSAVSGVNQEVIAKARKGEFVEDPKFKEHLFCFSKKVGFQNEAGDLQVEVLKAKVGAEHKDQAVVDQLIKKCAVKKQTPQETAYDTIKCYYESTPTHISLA
# Protocol: as §1, §2
# recombinant DhelOBP4 = recombinant DhelOBP4 (Dastarcus helophoroides, UniProt A0A1I9HZP6); experiment: as above; settings: for IC50: read-out: IC50, ligand concentration displacing 50% of the fluorescence intensity of the DhelOBPs/1-NPN complex; for Ki: calculated from IC50, read-out: Ki, dissociation constant
# recombinant DhelOBP4, sequence (A0A1I9HZP6 entry or part of it): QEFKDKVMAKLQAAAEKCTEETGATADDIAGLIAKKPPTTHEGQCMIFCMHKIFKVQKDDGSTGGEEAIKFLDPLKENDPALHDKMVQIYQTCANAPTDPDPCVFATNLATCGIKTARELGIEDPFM
# Protocol: as §1, §2
# recombinant DhelOBP5 = recombinant DhelOBP5 (Dastarcus helophoroides, UniProt A0A1I9HZP1); experiment: as above; settings: DhelOBP5, pH 7.4; for IC50: read-out: IC50, ligand concentration displacing 50% of the fluorescence intensity of the DhelOBPs/1-NPN complex
# recombinant DhelOBP5, sequence (A0A1I9HZP1 entry or part of it): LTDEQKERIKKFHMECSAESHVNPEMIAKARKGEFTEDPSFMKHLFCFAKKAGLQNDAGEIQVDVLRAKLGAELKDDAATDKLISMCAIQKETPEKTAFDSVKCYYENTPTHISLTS
# Protocol: as §1, §2
# [1] = system: D. helophoroides adults injected with dsGFP or dsDhelOBP4; experiment: RNAi-mediated Y-tube olfactometer bioassay; format: in vivo, Dastarcus helophoroides
# Protocol: (§3) Y-tube olfactometer experiments were conducted to evaluate the behavioral response to HIPVs with the best binding affinities in darkness at approximately 25 ± 1 °C. The central tube was 15 cm long, and the two branching arms, each linked to one vial, were 12 cm long with a 75° angle between them. Twenty microliters of each chemical that had been diluted 1000 times by volume were added to a 1 × 1 cm filter paper in one of the vials, and 20 μL of liquid paraffin were dropped on the same size filter paper in the second vial as the blank control. An effective choice was recorded when adults crawled at least 5 cm into the arm within 1 min and stayed 30 s at least. After every five individuals, the two arms were exchanged to avoid position effects. After testing 10 individuals, the Y-tube olfactometer was cleaned with absolute ethanol and oven-dried at 150 °C for 2 h. Fifty adult D. helophoroides were analyzed in each treated group. The results were analyzed using the chi-square test. 50 male and 50 female adults of D. helophoroides were chosen on day 1–4 after eclosion. The two treated groups were: dsGFP-injected and dsRNA-injected. dsGFP (250 ng) or dsRNA (250 ng) was respectively injected into the thorax internode of the adults with a microinjector (World Precision Instruments Inc., Sarasota, FL, USA) under a microscope. The RNAi efficiency was detected using a qRT-PCR for seven consecutive days. Following behavioral response was evaluated using the Y-tube olfactometer.
# D. helophoroides adults = experiment: Y-tube olfactometer bioassay; format: in vivo, Dastarcus helophoroides; settings: female and male adults, 20 μL of chemical diluted 1000 times vs liquid paraffin, chi-square test
# Protocol: as §3, with “test.” for “test. 50 male and 50 female adults of D. helophoroides were chosen on day 1–4 after eclosion. The two treated groups were: dsGFP-injected and dsRNA-injected. dsGFP (250 ng) or dsRNA (250 ng) was respectively injected into the thorax internode of the adults with a microinjector (World Precision Instruments Inc., Sarasota, FL, USA) under a microscope. The RNAi efficiency was detected using a qRT-PCR for seven consecutive days. Following behavioral response was evaluated using the Y-tube olfactometer.”
# [2] = Scatchard plot, read-out: dissociation constant (Kd) bound to 1-NPN
# [3] = female adults after injection of dsDhelOBP4
# [4] = female and male adults after injection of dsGFP
# [5] = male adults after injection of dsDhelOBP4
SMILES,Kd (recombinant DhelOBP18; [2]),Kd (recombinant DhelOBP14; [2]),Kd (recombinant DhelOBP20; [2]),Kd (recombinant DhelOBP6),"Kd (recombinant DhelOBP4; DhelOBP4, pH 7.4, Scatchard plot, read-out: dissociation constant (Kd) bound to 1-NPN)",Kd (recombinant DhelOBP5; [2]),IC50 (recombinant DhelOBP18),IC50 (recombinant DhelOBP14),IC50 (recombinant DhelOBP20),"IC50 (recombinant DhelOBP4; DhelOBP4, pH 5.0)","Ki (recombinant DhelOBP4; DhelOBP4, pH 7.4)","IC50 (recombinant DhelOBP4; DhelOBP4, pH 7.4)",IC50 (recombinant DhelOBP5),"Behavioral response of D. helophoroides post-RNAi treatment [1, 3]","Behavioral response of D. helophoroides post-RNAi treatment [1, 4]","Behavioral response of D. helophoroides post-RNAi treatment [1, 5]",Behavioral response of D. helophoroides (D. helophoroides adults),Behavioral response of D. helophoroides (D. helophoroides adults; listed as γ-terpinene),Behavioral response of D. helophoroides (D. helophoroides adults; listed as α-terpineol)
"c1ccc(Nc2cccc3ccccc23)cc1 [1-NPN, N-phenyl-1-naphthylamine, reference compound]",1.23 µM,17.4 µM,5.13 µM,120 µM,22.4 µM,41 µM,–,–,–,–,–,–,–,–,–,–,–,–,–
CC1=CCC(C(C)C)=CC1 [γ-Terpinene],–,–,–,–,–,–,> 50 µM,> 50 µM,> 50 µM,> 50 µM,10.1 ± 0.3 µM,11 ± 0.3 µM,> 50 µM,significantly avoidant effects; also recorded: significant repellent response,identically attractive effects,no behavioral effects; also recorded: did not elicit a behavioral response,attractive effects,significantly attracted,–
CC1=CC[C@@H](C(C)(C)O)CC1 [α-Terpineol],–,–,–,–,–,–,> 50 µM,> 50 µM,> 50 µM,> 50 µM,9.6 ± 0.1 µM,10.4 ± 0.1 µM,> 50 µM,–,–,–,no behavioral effects,–,did not elicit a behavioral response
CC12CCC(C1)C(C)(C)C2=O (stereo not shown) [Fenchone],–,–,–,–,–,–,> 50 µM,> 50 µM,> 50 µM,> 20 µM,–,> 20 µM,> 50 µM,–,–,–,–,–,–
CC1=CC(=O)[C@H]2C[C@@H]1C2(C)C [(-)-Verbenone],–,–,–,–,–,–,> 50 µM,> 50 µM,> 50 µM,> 50 µM,–,> 20 µM,> 50 µM,–,–,–,–,–,–
CC1=CCC(O)(C(C)C)CC1 (stereo not shown) [Terpinen-4-ol],–,–,–,–,–,–,> 50 µM,> 50 µM,> 50 µM,> 50 µM,–,> 20 µM,> 50 µM,–,–,–,–,–,–
CC1=CCC(=C(C)C)CC1 [Terpinolene],–,–,–,–,–,–,> 50 µM,> 50 µM,> 50 µM,> 50 µM,14.5 ± 1.7 µM,15.7 ± 1.8 µM,> 50 µM,–,–,–,–,–,–
CC12CCC(CC1=O)C2(C)C (stereo not shown) [Camphor],–,–,–,–,–,–,> 50 µM,> 50 µM,> 50 µM,> 50 µM,16.6 ± 2.2 µM,18 ± 2.4 µM,> 50 µM,–,–,–,–,–,–
Cc1ccc(C(C)C)cc1 [p-Cymene],–,–,–,–,–,–,> 50 µM,> 50 µM,> 50 µM,> 50 µM,12 ± 0.9 µM,13 ± 0.9 µM,> 50 µM,significantly avoidant effects; also recorded: significant repellent response,identically attractive effects,no behavioral effects; also recorded: did not elicit a behavioral response,significantly attracted; also recorded: attractive effects,–,–
